In patent US20240150334A1, “HSD17B13 INHIBITORS AND/OR DEGRADERS” (Pfizer Inc., priority 2022, published 2024):

Legend:
HSD17B13 enzyme = HSD17B13 enzyme (Homo sapiens (Human), UniProt Q7Z5P4); experiment: hHSD17B13 IC50 Assay (FAC beta-estradiol), purified protein enzyme activity assay with NAD(P)H-Glo luciferase readout; type: biochemical; details: geometric mean, 12 μM FAC beta-estradiol, 500 μM NAD+, read-out: hHSD17B13_IC50 GMean IC50
Experimental: The following protocols may of course be varied by those skilled in the art. hHSD17B13 IC50 Assay (FAC beta-estradiol)
HSD17B13 enzyme inhibition potency of test compounds was determined using a purified protein biochemical enzyme activity assay, using NAD(P)H-Glo luciferase readout (Promega). HSD17B13 enzyme uses the oxidized form of nicotinamide adenine dinucleotide (NAD+) as a cofactor during metabolism of Beta-Estradiol (substrate) to […], while converting NAD+ to the reduced form (NADH). The Promega NAD(P)H-Glo™ assay is a homogeneous bioluminescent assay that generates a light signal from biochemical reactions that contain NADH (or nicotinamide adenine dinucleotide phosphate, NADPH). In the presence of NADH (or NADPH), the enzyme Reductase reduces a proluciferin reductase substrate to form luciferin. Luciferin then is quantified using Ultra-Glo™ Recombinant Luciferase (rLuciferase), and the light signal produced is proportional to the amount of NAD(P)H in the sample. […] The reaction was initiated by the addition of 2 μL/well purified HSD17B13 protein (30 nM FAC in assay buffer). Compound, substrate mix and HSD17B13 protein was incubated in the dark at room temperature for 2 hours before the addition of 3 μL/well NAD(P)H-Glo detection reagent, prepared from luciferase detection reagent and reductase/reductase substrate, as per manufacturer's instructions (Promega, G9061). Detection reagent was incubated in the dark for 1 hour at room temperature before plates were read on the Envision plate reader (Perkin Elmer) using a luminescent protocol. Data expressed as relative luminescent units (RLUs) were then normalized to control wells using Activity Base (IDBS). Zero percent effect (ZPE) was defined as RLUs generated from uninhibited HSD17B13 protein (vehicle control).

wild type human HSD17B13 = wild type human HSD17B13 (Homo sapiens (Human), UniProt Q7Z5P4); experiment: HEK_Beta-Est LCMS_IC50_Tekcel, whole-cell HEK-HSD17B13 inhibition assay, estrone production by LCMS; type: cell-based; details: geometric mean, HEK cells stably expressing wild type human HSD17B13, 25 μM FAC beta-estradiol, read-out: HEK_Beta-Est LCMS_IC50—Tekcel GMean IC50
Summary of the method: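 Readout was LCMS quantitation of estrone made from beta-estradiol with NAD+ as cofactor. Whole HEK-HSD17B13 cells were given compound for 1 hour, then the reaction for 2 hours, both at 37° C. Product area ratios were normalized to vehicle controls as zero percent effect.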

Sequence of HSD17B13 enzyme (Q7Z5P4 20-300): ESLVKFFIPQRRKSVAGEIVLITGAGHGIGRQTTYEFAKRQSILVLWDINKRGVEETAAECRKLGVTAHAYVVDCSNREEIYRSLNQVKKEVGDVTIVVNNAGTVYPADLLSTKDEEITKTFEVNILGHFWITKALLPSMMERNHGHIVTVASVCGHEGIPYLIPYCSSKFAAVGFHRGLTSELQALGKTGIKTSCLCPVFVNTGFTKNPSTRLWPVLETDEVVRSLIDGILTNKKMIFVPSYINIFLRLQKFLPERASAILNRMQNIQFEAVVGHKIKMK
Sequence of wild type human HSD17B13 (Q7Z5P4 20-300): as above

| SMILES | IC50 (HSD17B13 enzyme) [nM] | IC50 (wild type human HSD17B13) [nM] |
| --- | --- | --- |
| Cn1ncc(-c2ccc3cn([C@H]4CC[C@H](CNC(=O)c5cc(F)c(O)c(F)c5)CC4)nc3c2)c1C(F)(F)F [Example 46, 3,5-difluoro-4-hydroxy-N-{[(1r,4r)-4-{6-[1-methyl-5-(trifluoro-methyl)-1H-pyrazol-4-yl]-2H-indazol-2-yl}cyclohexyl]methyl}benzamide] | 9.5 | 450 |
| CCn1cc(-c2ccc3cn([C@H]4CC[C@H](CNC(=O)c5cc(F)c(O)c(F)c5)CC4)nc3c2)cn1 [Example 47, N-({(1r,4r)-4-[6-(1-ethyl-1H-pyrazol-4-yl)-2H-indazol-2-yl]cyclohexyl}methyl)-3,5-difluoro-4-hydroxybenzamide] | < 4.4 | 110 |
| Cc1nn(C)cc1-c1ccc2cn([C@H]3CC[C@H](CNC(=O)c4cc(F)c(O)c(F)c4)CC3)nc2c1 [Example 50, N-({(1r,4r)-4-[6-(1,3-dimethyl-1H-pyrazol-4-yl)-2H-indazol-2-yl]cyclohexyl}methyl)-3,5-difluoro-4-hydroxybenzamide] | 11 | 250 |
| Cn1cc(-c2ccc3cn([C@H]4CC[C@H](CNC(=O)c5cc(F)c(O)c(F)c5)CC4)nc3c2)c(F)n1 [Example 51, 3,5-difluoro-N-({(1r,4r)-4-[6-(3-fluoro-1-methyl-1H-pyrazol-4-yl)-2H-indazol-2-yl]cyclohexyl}methyl)-4-hydroxybenzamide] | 6.5 | 120 |
| Cc1cc(C)nc(-c2ccc3cn([C@H]4CC[C@H](CNC(=O)c5cc(F)c(O)c(F)c5)CC4)nc3c2)n1 [Example 52, N-({(1r,4r)-4-[6-(4,6-dimethylpyrimidin-2-yl)-2H-indazol-2-yl]cyclohexyl}methyl)-3,5-difluoro-4-hydroxybenzamide] | 15 | 330 |
| Cc1ccnc(-c2ccc3cn([C@H]4CC[C@H](CNC(=O)c5cc(F)c(O)c(F)c5)CC4)nc3c2)n1 [Example 53, 3,5-difluoro-4-hydroxy-N-({(1r,4r)-4-[6-(4-methylpyrimidin-2-yl)-2H-indazol-2-yl]cyclohexyl}methyl)benzamide] | 4.4 | 200 |
| O=C(NC[C@H]1CC[C@H](n2cc3ccc(-c4ncc(C5CC5)cn4)cc3n2)CC1)c1cc(F)c(O)c(F)c1 [Example 54, N-({(1r,4r)-4-[6-(5-cyclopropylpyrimidin-2-yl)-2H-indazol-2-yl]cyclohexyl}methyl)-3,5-difluoro-4-hydroxybenzamide] | 9.5 | 230 |
| N#Cc1cccc(-c2ccc3cn([C@H]4CC[C@H](CNC(=O)c5cc(F)c(O)c(F)c5)CC4)nc3c2)c1 [Example 55, N-({(1r,4r)-4-[6-(3-cyanophenyl)-2H-indazol-2-yl]cyclohexyl}methyl)-3,5-difluoro-4-hydroxybenzamide] | 17 | 230 |
| Cc1ccc(-c2ccc3cn([C@H]4CC[C@H](CNC(=O)c5cc(F)c(O)c(F)c5)CC4)nc3c2)nc1 [Example 57, 3,5-difluoro-4-hydroxy-N-({(1r,4r)-4-[6-(5-methylpyridin-2-yl)-2H-indazol-2-yl]cyclohexyl}methyl) benzamide] | 26 | 310 |
| O=C(NC[C@H]1CC[C@H](n2cc3ccc(-c4ncc(CO)cn4)cc3n2)CC1)c1cc(F)c(O)c(F)c1 [Example 58, 3,5-difluoro-4-hydroxy-N-{[(1r,4r)-4-{6-[5-(hydroxymethyl)pyrimidin-2-yl]-2H-indazol-2-yl}cyclohexyl]methyl} benzamide] | 25 | 280 |
| CC(C)(O)c1cncc(-c2ccc3cn([C@H]4CC[C@H](CNC(=O)c5cc(F)c(O)c(F)c5)CC4)nc3c2)c1 [Example 59, 3,5-difluoro-4-hydroxy-N-{[(1r,4r)-4-{6-[5-(2-hydroxypropan-2-yl)pyridin-3-yl]-2H-indazol-2-yl}cyclohexyl]methyl}benzamide] | 11 | 470 |
| Cn1cc(-c2ccc3cn([C@H]4CC[C@H](CNC(=O)c5cc(F)c(O)c(F)c5)CC4)nc3c2)cn1 [Example 60, 3,5-difluoro-4-hydroxy-N-({(1r,4r)-4-[6-(1-methyl-1H-pyrazol-4-yl)-2H-indazol-2-yl]cyclohexyl}methyl) benzamide] | 5.8 | 94 |
| O=C(NC[C@H]1CC[C@H](n2cc3ccc(-c4ccncc4)cc3n2)CC1)c1cc(F)c(O)c(F)c1 [Example 61, 3,5-difluoro-4-hydroxy-N-({(1r,4r)-4-[6-(pyridin-4-yl)-2H-indazol-2-yl]cyclohexyl}methyl)benzamide] | 4.8 | 120 |
| Cn1nccc1-c1ccc2cn([C@H]3CC[C@H](CNC(=O)c4cc(F)c(O)c(F)c4)CC3)nc2c1 [Example 62, 3,5-difluoro-4-hydroxy-N-({(1r,4r)-4-[6-(1-methyl-1H-pyrazol-5-yl)-2H-indazol-2-yl]cyclohexyl}methyl) benzamide] | 8.7 | 350 |
| Cc1ccc(-c2ccc3cn([C@H]4CC[C@H](CNC(=O)c5cc(F)c(O)c(F)c5)CC4)nc3c2)nn1 [Example 63, 3,5-difluoro-4-hydroxy-N-({(1r,4r)-4-[6-(6-methylpyridazin-3-yl)-2H-indazol-2-yl]cyclohexyl}methyl) benzamide] | 11 | 370 |
| COc1cccc(-c2ccc3cn([C@H]4CC[C@H](CNC(=O)c5cc(F)c(O)c(F)c5)CC4)nc3c2)c1 [Example 64, 3,5-difluoro-4-hydroxy-N-({(1r,4r)-4-[6-(3-methoxyphenyl)-2H-indazol-2-yl]cyclohexyl}methyl) benzamide] | 5.6 | 350 |
| O=C(NC[C@H]1CC[C@H](n2cc3ccc(-c4cnccn4)cc3n2)CC1)c1cc(F)c(O)c(F)c1 [Example 65, 3,5-difluoro-4-hydroxy-N-({(1r,4r)-4-[6-(pyrazin-2-yl)-2H-indazol-2-yl]cyclohexyl}methyl) benzamide] | 13 | 170 |
| COc1cnc(-c2ccc3cn([C@H]4CC[C@H](CNC(=O)c5cc(F)c(O)c(F)c5)CC4)nc3c2)nc1 [Example 66, 3,5-difluoro-4-hydroxy-N-({(1r,4r)-4-[6-(5-methoxypyrimidin-2-yl)-2H-indazol-2-yl]cyclohexyl}methyl) benzamide] | 7.5 | 180 |
| COc1ccc(-c2ccc3cn([C@H]4CC[C@H](CNC(=O)c5cc(F)c(O)c(F)c5)CC4)nc3c2)cc1 [Example 67, 3,5-difluoro-4-hydroxy-N-({(1r,4r)-4-[6-(4-methoxyphenyl)-2H-indazol-2-yl]cyclohexyl}methyl) benzamide] | 31 | 270 |
| O=C(NC[C@H]1CC[C@H](n2cc3ccc(-c4ccccc4)cc3n2)CC1)c1cc(F)c(O)c(F)c1 [Example 68, 3,5-difluoro-4-hydroxy-N-{[(1r,4r)-4-(6-phenyl-2H-indazol-2-yl)cyclohexyl]methyl} benzamide] | 7.8 | 270 |
| O=C(NC[C@H]1CC[C@H](n2cc3ccc(-c4cscn4)cc3n2)CC1)c1cc(F)c(O)c(F)c1 [Example 69, 3,5-difluoro-4-hydroxy-N-({(1r,4r)-4-[6-(1,3-thiazol-4-yl)-2H-indazol-2-yl]cyclohexyl}methyl) benzamide] | 8.4 | 130 |
